In ChEMBL document CHEMBL1909046, “DrugMatrix in vitro pharmacology data”:

Key:
[1] = DRUGMATRIX: Glutamate, Kainate radioligand binding (ligand: [3H] Kainic acid); assay type: cell membranes, Rattus norvegicus, Wistar, Brain, Membrane; details: Not Active = under 50% inhibition at 10 µM
[2] = DRUGMATRIX: Calcium Channel Type L, Dihydropyridine radioligand binding (ligand: [3H] Nitrendipine); assay type: cell membranes, Rattus norvegicus, Wistar, Cerebral cortex, Membrane; details: Not Active = under 50% inhibition at 10 µM
[3] = biological target: T1, 3-hydroxy-3-methylglutaryl-coenzyme A reductase (Homo sapiens, UniProt P04035); set-up: species or system Escherichia coli;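 note: enzyme inhibition assay of HMG-CoA reductase using radiolabeled [14C]HMG-CoA as substrate; in other assays of this panel Not Active means under 50% inhibition at 10 µM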
T1 sequence (P04035 whole entry): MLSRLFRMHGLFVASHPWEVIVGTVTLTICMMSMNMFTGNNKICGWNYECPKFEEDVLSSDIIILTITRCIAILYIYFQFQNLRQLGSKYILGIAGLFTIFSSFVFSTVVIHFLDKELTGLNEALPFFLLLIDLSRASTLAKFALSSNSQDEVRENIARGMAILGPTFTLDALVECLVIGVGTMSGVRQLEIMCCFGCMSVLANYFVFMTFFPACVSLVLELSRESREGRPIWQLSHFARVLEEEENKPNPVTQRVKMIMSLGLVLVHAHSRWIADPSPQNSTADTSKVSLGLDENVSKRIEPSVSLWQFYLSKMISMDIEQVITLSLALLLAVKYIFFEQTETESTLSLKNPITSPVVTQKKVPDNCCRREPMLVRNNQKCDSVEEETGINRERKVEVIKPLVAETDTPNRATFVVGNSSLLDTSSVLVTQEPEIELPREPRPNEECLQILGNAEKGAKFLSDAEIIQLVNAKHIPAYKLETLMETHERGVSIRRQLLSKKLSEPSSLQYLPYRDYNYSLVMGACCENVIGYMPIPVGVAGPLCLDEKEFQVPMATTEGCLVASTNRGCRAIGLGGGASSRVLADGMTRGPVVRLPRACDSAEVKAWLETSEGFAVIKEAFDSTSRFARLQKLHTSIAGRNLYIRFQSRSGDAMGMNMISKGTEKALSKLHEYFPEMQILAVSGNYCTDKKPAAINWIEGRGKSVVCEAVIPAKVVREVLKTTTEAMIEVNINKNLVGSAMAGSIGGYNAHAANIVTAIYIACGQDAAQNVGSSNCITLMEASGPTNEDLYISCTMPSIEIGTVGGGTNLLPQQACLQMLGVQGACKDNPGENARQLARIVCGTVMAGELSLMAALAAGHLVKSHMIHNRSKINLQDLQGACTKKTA

Cathepsin G = biological target: T2, Cathepsin G (Homo sapiens, UniProt P08311); experiment: biochemical; assay type: tissue-based, Neutrophil; details: neutrophil;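 note: inhibition of Cathepsin G enzyme activity, tested on an AMC-conjugated peptide substrate; in other assays of this panel Not Active means under 50% inhibition at 10 µM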
T2 sequence (P08311 whole entry): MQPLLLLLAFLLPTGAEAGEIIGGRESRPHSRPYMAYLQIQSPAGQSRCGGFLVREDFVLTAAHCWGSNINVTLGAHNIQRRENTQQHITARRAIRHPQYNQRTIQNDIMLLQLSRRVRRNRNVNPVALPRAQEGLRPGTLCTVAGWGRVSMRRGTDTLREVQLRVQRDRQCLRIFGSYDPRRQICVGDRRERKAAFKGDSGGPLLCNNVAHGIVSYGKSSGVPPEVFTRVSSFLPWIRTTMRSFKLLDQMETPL

Cytochrome P450 1A2 = biological target: T3, Cytochrome P450 1A2 (Homo sapiens, UniProt P05177); details: bti-tn-5b1-4; note: in other assays of this panel Not Active means under 50% inhibition at 10 µM
T3 sequence (P05177 whole entry): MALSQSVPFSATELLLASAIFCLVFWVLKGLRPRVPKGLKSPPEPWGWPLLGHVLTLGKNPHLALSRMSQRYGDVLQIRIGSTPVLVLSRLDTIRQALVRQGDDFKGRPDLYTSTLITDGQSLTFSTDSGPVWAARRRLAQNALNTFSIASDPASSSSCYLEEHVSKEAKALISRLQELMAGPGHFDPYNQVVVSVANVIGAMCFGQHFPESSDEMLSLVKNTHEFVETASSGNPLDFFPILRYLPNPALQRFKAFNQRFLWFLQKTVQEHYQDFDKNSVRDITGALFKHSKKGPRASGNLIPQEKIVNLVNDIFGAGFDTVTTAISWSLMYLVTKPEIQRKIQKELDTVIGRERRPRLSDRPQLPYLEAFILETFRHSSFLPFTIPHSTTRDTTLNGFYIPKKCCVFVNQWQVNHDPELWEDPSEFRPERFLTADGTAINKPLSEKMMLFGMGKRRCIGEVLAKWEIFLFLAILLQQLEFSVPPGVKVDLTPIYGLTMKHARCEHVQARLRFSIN

Carbonic anhydrase 2 = Carbonic anhydrase 2 (Homo sapiens, UniProt P00918); experiment: DRUGMATRIX: Carbonic Anhydrase II enzyme inhibition (substrate: 4-Nitrophenyl acetate (4-NPA)); assay type: tissue-based, Erythrocyte; details: erythrocyte; Not Active = under 50% inhibition at 10 µM
Cannabinoid receptor 1 = Cannabinoid receptor 1 (Homo sapiens, UniProt P21554); assay type: cell membranes, Chem-1, Membrane; details: chem-1; note: in other assays of this panel Not Active means under 50% inhibition at 10 µM
Cannabinoid receptor 1, sequence (P21554 whole entry): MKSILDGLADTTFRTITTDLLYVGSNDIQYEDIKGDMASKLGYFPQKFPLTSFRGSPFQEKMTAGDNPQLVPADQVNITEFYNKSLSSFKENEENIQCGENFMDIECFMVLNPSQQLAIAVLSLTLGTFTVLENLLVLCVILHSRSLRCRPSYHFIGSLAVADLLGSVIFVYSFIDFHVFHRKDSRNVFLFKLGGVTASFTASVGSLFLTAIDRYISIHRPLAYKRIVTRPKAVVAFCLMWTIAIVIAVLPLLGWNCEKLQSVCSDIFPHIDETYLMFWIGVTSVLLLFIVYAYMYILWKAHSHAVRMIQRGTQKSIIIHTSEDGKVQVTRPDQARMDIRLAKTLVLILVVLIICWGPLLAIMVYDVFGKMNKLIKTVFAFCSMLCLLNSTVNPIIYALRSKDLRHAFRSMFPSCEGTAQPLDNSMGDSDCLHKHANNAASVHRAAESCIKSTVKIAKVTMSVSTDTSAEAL

COc1ccc(Cl)cc1C(=O)NCCc1ccc(S(=O)(=O)NC(=O)NC2CCCCC2)cc1 [GLYBURIDE]
Not Active: IC50 [1] | Ki [1] | IC50 [2] | Ki [2] | IC50 [3] | IC50 (Cathepsin G) | IC50 (Cytochrome P450 1A2) | Ki (Cytochrome P450 1A2) | IC50 (Carbonic anhydrase 2) | IC50 (Cannabinoid receptor 1)

CC(C)NCC(O)COc1ccc(CC(N)=O)cc1 (stereo unspecified) [ATENOLOL]
Not Active: IC50 [1] | Ki [1] | IC50 [2] | Ki [2] | IC50 [3] | IC50 (Cathepsin G) | IC50 (Carbonic anhydrase 2) | IC50 (Cannabinoid receptor 1)

C#C[C@]1(O)CC[C@H]2[C@@H]3CCC4=CC(=O)CC[C@@H]4[C@H]3CC[C@@]21C [NORETHINDRONE]
Not Active: IC50 [1] | Ki [1] | IC50 [2] | Ki [2] | IC50 [3] | IC50 (Cathepsin G) | IC50 (Cytochrome P450 1A2) | Ki (Cytochrome P450 1A2) | IC50 (Carbonic anhydrase 2) | IC50 (Cannabinoid receptor 1)

O=C(O)CNCP(=O)(O)O [GLYPHOSATE]
Not Active: IC50 [1] | Ki [1] | IC50 [2] | Ki [2] | IC50 [3] | IC50 (Cathepsin G) | IC50 (Carbonic anhydrase 2) | IC50 (Cannabinoid receptor 1)

COc1cc([C@@H]2c3cc4c(cc3[C@H](O)[C@H]3COC(=O)[C@H]23)OCO4)cc(OC)c1OC [PODOFILOX]
Not Active: IC50 [1] | Ki [1] | IC50 [2] | Ki [2] | IC50 [3] | IC50 (Cathepsin G) | IC50 (Cytochrome P450 1A2) | Ki (Cytochrome P450 1A2) | IC50 (Carbonic anhydrase 2) | IC50 (Cannabinoid receptor 1)

C[C@H]1C[C@H]2[C@@H]3CCC4=CC(=O)C=C[C@]4(C)[C@@]3(F)[C@@H](O)C[C@]2(C)[C@@]1(O)C(=O)CO [BETAMETHASONE]
Not Active: IC50 [1] | Ki [1] | IC50 [2] | Ki [2] | IC50 [3] | IC50 (Cathepsin G) | IC50 (Cytochrome P450 1A2) | Ki (Cytochrome P450 1A2) | IC50 (Carbonic anhydrase 2) | IC50 (Cannabinoid receptor 1)

CCN(CCO)CCCC(C)Nc1ccnc2cc(Cl)ccc12 (stereo unspecified) [HYDROXYCHLOROQUINE]
Not Active: IC50 [1] | Ki [1] | IC50 [2] | Ki [2] | IC50 [3] | IC50 (Cathepsin G) | IC50 (Carbonic anhydrase 2) | IC50 (Cannabinoid receptor 1)

NS(=O)(=O)c1cc(C(=O)O)c(NCc2ccco2)cc1Cl [FUROSEMIDE]
Not Active: IC50 [1] | Ki [1] | IC50 [2] | Ki [2] | IC50 [3] | IC50 (Cathepsin G) | IC50 (Cannabinoid receptor 1)
